Source: patent US9688689B2, “Compounds and compositions for inducing chondrogenesis” (Novartis AG, priority 2014, dated 2017)

These compounds were tested on Primary articular chondrocytes from normal bovine knees (assay: NO Release Assay in Bovine Chondrocytes (inhibition of cytokine induced NO release, Greiss reagent)). Details: Bos taurus, Chondrocyte; 20 ng/ml TNFα and 10 ng/ml human oncostatin M, 48 hours; read-out: NO Inh. IC50.
Type: cell-based
Description: The compounds of the present invention were evaluated in two functional assays to assess their chondrogenesis activities (Type II Collagen Expression) and chondrocyte protective activities (NO release assay).
The assay was described in Johnson, K., et al., (2012) Science 336, 717-721. Chondrocytes release NO during OA pathogenesis. This assay measures the inhibition of nitric oxide release by the treated compound (an indicator of chondro-protection) Primary articular chondrocytes from normal bovine knees (Animal Technologies, Tyler, Tex.) were isolated after dissection and collagenase digestion (Worthington Biochemical) of the tibial plateau and femoral condyle articular cartilage. The cells were initially plated at 80-90% confluency after isolation. Primary chondrocytes were cultured in high-glucose Dulbecco's modified Eagle's medium (DMEM) supplemented with 10% fetal bovine serum (FBS), 1% L-glutamine, 100 units/ml of penicillin, and 50 μg/ml of streptomycin (Life Technologies, Carlsbad, Calif.) and maintained at 37° C. in the presence of 5% CO2 for 7 days prior to initiation of each experiment. During the 7-day culture period, the cells adhered and established a chondrocyte-like appearance that was maintained throughout the experimental period. Functional studies on chondrocytes were performed in high-glucose DMEM with no FBS unless indicated otherwise.
After one week of culture, 8500 cells were plated per well in Greiner 384 well white clear bottom plates in growth media. Following 24 hours of culture, the media was removed and replaced with serum free DMEM containing 20 ng/ml TNFα and 10 ng/ml human oncostatin M (inflammatory mediators). […] 20 μl of the supernatant was mixed with 20 μl of the Greiss reagent (Promega # G2930) and quantitated at 540 nm. The Greiss reagent part A (1% Sulfanilamide in 5% phosphoric acid) was mixed at a 1:1 ration with Greiss reagent part B (0.1% N-1-napthylethylenediamine dihydrochloride in water) immediately prior to added to the culture supernatant.

SMILES | IC50
O=C(Nc1ccc(Cl)c(Cl)c1)[C@@H]1[C@H](c2ccncc2)[C@@H]2CC[C@H]1O2 [Compound 135] | > 33 µM
O=C(Nc1ccc(Cl)c(Cl)c1)C1=C(c2cccc(C(F)(F)F)n2)[C@@H]2CC[C@H]1O2 [Compound 136] | 0.14 µM
Cn1nc(C(F)(F)F)cc1C1=C(C(=O)Nc2ccc(-c3ccccc3F)c(F)c2)C2CC[C@@H]1O2 [Compound 137] | 8.2 µM
O=C(Nc1ccc(Cl)c(Cl)c1)[C@H]1C2CC[C@H](O2)[C@H]1c1cnccn1 [Compound 140] | > 33 µM
Cn1nc(C(F)(F)F)cc1C1=C(C(=O)Nc2ccc(Cl)c(Cl)c2)[C@H]2CC[C@@H]1O2 [Compound 141] | 17 µM
CCOC(=O)c1ccc(NC(=O)C2=C(c3cc(C(F)(F)F)nn3C)[C@@H]3CC[C@H]2O3)cc1 [Compound 142] | > 33 µM
O=C(Nc1ccc(Cl)c(Cl)c1)C1=C(c2cnccn2)[C@@H]2CC[C@H]1O2 [Compound 144] | > 33 µM
CCOC(=O)c1ccc(NC(=O)[C@H]2[C@H](c3ccc(OC)cn3)[C@@H]3CC[C@H]2O3)cc1 [Compound 151] | > 33 µM
O=C(Nc1ccc(Cl)c(Cl)c1)[C@@H]1[C@H](c2cccc(C(F)(F)F)n2)[C@@H]2CC[C@H]1O2 [Compound 155, (1R,2R,3R,4S)—N-(3,4-dichlorophenyl)-3-(6-(trifluoromethyl)pyridin-2-yl)-7-oxabicyclo[2.2.1]heptane-2-carboxamide] | > 33 µM
O=C(Nc1cccc(C(F)(F)F)c1F)C1=C(c2cccc(C(F)(F)F)n2)C2CCC1O2 (stereo not drawn) [Compound 157] | 25 µM
O=C(Nc1ccc(-c2ccccc2)c(Cl)c1)C1=C(c2cccc(C(F)(F)F)n2)[C@@H]2CC[C@H]1O2 [Compound 160, (1R,4S)—N-(2-chloro-[1,1′-biphenyl]-4-yl)-3-(6-(trifluoromethyl)pyridin-2-yl)-7-oxabicyclo[2.2.1]hept-2-ene-2-carboxamide] | 5.4 µM
O=C(Nc1ccc(Cl)c(Cl)c1)[C@H]1[C@H](c2ccncc2)[C@@H]2CC[C@H]1O2 [Compound 162] | > 33 µM
O=C(Nc1ccc(-c2ccccc2F)c(F)c1)C1=C(c2cnccn2)[C@@H]2CC[C@H]1O2 [Compound 164] | > 33 µM
Cc1ccnc([C@H]2[C@@H](C(=O)Nc3ccc(-c4ccccc4F)c(F)c3)[C@H]3CC[C@@H]2O3)c1 [Compound 166] | > 33 µM
O=C(Nc1ccc(-c2ccccc2F)c(F)c1)C1=C(c2ccnc(N3CC[C@H](O)C3)c2)[C@@H]2CC[C@H]1O2 [Compound 167] | > 33 µM
